Inhibition and IC50 data for 13 compounds are collected here from ChEMBL document CHEMBL1921717, “Benzothiazole-containing hydroxamic acids as histone deacetylase inhibitors and antitumor agents” (Bioorg Med Chem Lett, 2011).

For test [1], the target named is Histone deacetylase 4 (Homo sapiens) (UniProt P56524). As to the kind of experiment: Inhibition of HDAC4 in human SW620 cells assessed as increase in histone H3 acetylation at 1 ug/ml after 24 hrs by Western blot analysis. Format: cell-based. The note with it: SW-620. A general note: Immunoblotting shows a protein as a band on a membrane.
Sequence of Histone deacetylase 4 (Homo sapiens) (P56524 whole entry): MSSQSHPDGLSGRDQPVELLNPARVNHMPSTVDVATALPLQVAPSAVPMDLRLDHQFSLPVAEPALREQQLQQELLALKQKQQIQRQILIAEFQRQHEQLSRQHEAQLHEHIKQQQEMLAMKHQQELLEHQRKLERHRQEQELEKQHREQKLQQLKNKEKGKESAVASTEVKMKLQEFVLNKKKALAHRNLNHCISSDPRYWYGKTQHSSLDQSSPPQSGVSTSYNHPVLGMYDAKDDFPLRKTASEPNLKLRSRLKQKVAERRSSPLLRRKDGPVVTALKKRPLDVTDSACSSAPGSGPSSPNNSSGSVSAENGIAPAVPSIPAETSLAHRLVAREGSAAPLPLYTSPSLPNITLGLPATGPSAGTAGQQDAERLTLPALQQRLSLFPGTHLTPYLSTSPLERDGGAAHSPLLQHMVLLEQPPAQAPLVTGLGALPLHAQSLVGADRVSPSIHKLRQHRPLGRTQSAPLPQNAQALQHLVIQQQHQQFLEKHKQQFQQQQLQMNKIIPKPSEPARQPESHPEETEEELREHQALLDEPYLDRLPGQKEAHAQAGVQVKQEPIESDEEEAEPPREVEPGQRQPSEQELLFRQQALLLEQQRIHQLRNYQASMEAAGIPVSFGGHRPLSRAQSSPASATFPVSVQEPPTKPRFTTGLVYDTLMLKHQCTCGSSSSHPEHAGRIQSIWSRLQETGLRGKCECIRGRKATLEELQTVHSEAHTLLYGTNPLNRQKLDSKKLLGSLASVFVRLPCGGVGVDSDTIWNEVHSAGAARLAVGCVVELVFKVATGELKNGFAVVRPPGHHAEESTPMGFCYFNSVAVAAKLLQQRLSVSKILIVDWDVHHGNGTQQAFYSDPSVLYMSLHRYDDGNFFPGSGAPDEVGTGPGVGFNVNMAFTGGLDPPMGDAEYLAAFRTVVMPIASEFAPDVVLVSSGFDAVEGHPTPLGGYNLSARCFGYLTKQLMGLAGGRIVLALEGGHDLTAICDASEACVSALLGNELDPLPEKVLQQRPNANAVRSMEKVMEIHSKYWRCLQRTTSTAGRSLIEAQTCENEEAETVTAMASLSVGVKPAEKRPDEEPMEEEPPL
The next test deals with SW-620. As to the kind of experiment: Cytotoxicity against human SW620 cells. The class given is functional, cell-based.
For test [2], the target named is Histone deacetylase 4 (Homo sapiens) (UniProt P56524). As to the kind of experiment: Inhibition of HDAC4 in human HL60 cells assessed as increase in histone H4 acetylation at 1 ug/ml after 24 hrs by Western blot analysis. The class given is cell-based. Conditions: HL-60.
For test [3], the target named is Histone deacetylase 3 (Homo sapiens) (UniProt O15379). As to the kind of experiment: Inhibition of HDAC3 in human HL60 cells assessed as increase in histone H4 acetylation at 1 ug/ml after 24 hrs by Western blot analysis. Format: cell-based. Conditions: HL-60.
Sequence of Histone deacetylase 3 (Homo sapiens) (O15379 whole entry): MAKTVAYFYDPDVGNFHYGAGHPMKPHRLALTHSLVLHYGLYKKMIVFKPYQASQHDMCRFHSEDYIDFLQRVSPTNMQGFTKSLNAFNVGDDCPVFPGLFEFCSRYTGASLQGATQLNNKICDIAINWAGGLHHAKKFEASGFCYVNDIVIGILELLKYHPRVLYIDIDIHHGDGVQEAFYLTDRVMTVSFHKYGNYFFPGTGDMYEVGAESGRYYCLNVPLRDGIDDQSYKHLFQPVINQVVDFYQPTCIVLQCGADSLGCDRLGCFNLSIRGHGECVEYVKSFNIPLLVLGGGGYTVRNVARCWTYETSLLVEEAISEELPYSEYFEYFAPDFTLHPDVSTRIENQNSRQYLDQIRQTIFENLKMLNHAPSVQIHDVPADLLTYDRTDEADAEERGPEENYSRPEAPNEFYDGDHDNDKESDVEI
Another test deals with MCF7. As to the kind of experiment: Cytotoxicity against human MCF7 cells. Format: functional, cell-based.
The test system of a further test is NCI-H460. As to the kind of experiment: Cytotoxicity against human NCI-H460 cells. The class given is functional, cell-based.
The test system of another test is ASPC1. As to the kind of experiment: Cytotoxicity against human AsPC1 cells. The class given is functional, cell-based.
The test system of a further test is PC-3. As to the kind of experiment: Cytotoxicity against human PC3 cells. Format: functional, cell-based.
The target of test [4] is Histone deacetylase 3 (Homo sapiens) (UniProt O15379). As to the kind of experiment: Inhibition of HDAC3 in human SW620 cells assessed as increase in histone H3 acetylation at 1 ug/ml after 24 hrs by Western blot analysis. The class given is cell-based. Conditions: SW-620.

The structures appear in SMILES notation. Converted amounts (≈) assume the structure as drawn. The source made the active and inactive calls. The calls are words filed in the database; no cut-off is given here. Where only a bound is given, the exact number is not on record here.

In the case of `O=C(CCCCC(=O)Nc1nc2ccc([N+](=O)[O-])cc2s1)NO`, the inhibition result in test [1], in [2], in test [3] and in test [4] was “inactive” in each case. Besides, the IC50 with SW-620, with MCF7, in the test with NCI-H460, with ASPC1 and with PC-3 was > 30 µg/mL in each case.
Turning to `O=C(CCCCCCC(=O)Nc1nc2ccccc2s1)NO`, the inhibition entry in [1], in test [2], in [3] and in test [4] was “Active” each time. For the same compound, the half-maximal inhibitory concentration (IC50) (usually the concentration that gives 50% inhibition) in the test on SW-620 came out at 4.01 µg/mL (≈ 12.5 µM); in the test on MCF7 it was 6.61 µg/mL (≈ 20.6 µM); in the test with NCI-H460 it was 5.71 µg/mL (≈ 17.8 µM); in the test on ASPC1, 5.69 µg/mL (≈ 17.7 µM); with PC-3, 5.44 µg/mL (≈ 16.9 µM).
On to `Cc1ccc2nc(NC(=O)CCCCC(=O)NO)sc2c1`, for which the inhibition entry in [1], in test [2], in [3] and in [4] was “inactive” each time. Besides, the IC50 in the test on SW-620 is 4.69 µg/mL (≈ 15.3 µM); in the test on MCF7 it was 4.27 µg/mL (≈ 13.9 µM); in the test on NCI-H460, 11 µg/mL (≈ 35.7 µM); in the test on ASPC1 it was 13.3 µg/mL (≈ 43.4 µM); in the test with PC-3, 6.23 µg/mL (≈ 20.3 µM).
For the compound `COc1ccc2nc(NC(=O)CCCCC(=O)NO)sc2c1`, the inhibition entry in [1], in test [2], in test [3] and in test [4] was “inactive” throughout. In addition, the concentration for half-maximal inhibition (IC50) in the test with SW-620 was found to be 9.07 µg/mL (≈ 28 µM); in the test on MCF7 it was 5.91 µg/mL (≈ 18.3 µM); with NCI-H460, 21.4 µg/mL (≈ 66.2 µM); in the test on ASPC1 it was 23.9 µg/mL (≈ 74 µM); in the test with PC-3, 15.3 µg/mL (≈ 47.3 µM).
The compound `O=C(CCCCCCC(=O)Nc1ccccc1)NO` [VORINOSTAT] gave an IC50 in the test on PC-3 of 0.94 µg/mL (≈ 3.56 µM).
In the case of `CCOc1ccc2nc(NC(=O)CCCCC(=O)NO)sc2c1`, the inhibition result in test [1], in [2], in test [3] and in [4] was “inactive” each time. Besides, the half-maximal inhibitory concentration (IC50) in the test on SW-620 is 9.26 µg/mL (≈ 27.4 µM); in the test on MCF7, 8.72 µg/mL (≈ 25.8 µM); with NCI-H460, 7.96 µg/mL (≈ 23.6 µM); in the test on ASPC1, 16.7 µg/mL (≈ 49.5 µM); in the test with PC-3 it was 6.69 µg/mL (≈ 19.8 µM).
As for `CS(=O)(=O)c1ccc2nc(NC(=O)CCCCC(=O)NO)sc2c1`, the inhibition result in [1], in test [2], in test [3] and in [4] was “inactive” each time. In addition, the IC50 in the test on SW-620, in the test with MCF7, in the test with NCI-H460, in the test on ASPC1 and in the test on PC-3 was > 30 µg/mL each time.
As to `CS(=O)(=O)c1ccc2nc(NC(=O)CCCCCCC(=O)NO)sc2c1`, the inhibition result in test [1], in test [2], in test [3] and in [4] was “inactive” in each case. For the same compound, the IC50 was 5.42 µg/mL (≈ 13.6 µM) with SW-620; 15.3 µg/mL (≈ 38.4 µM) in the test on MCF7; 6.54 µg/mL (≈ 16.4 µM) with NCI-H460; 13.5 µg/mL (≈ 33.8 µM) in the test with ASPC1; 5.69 µg/mL (≈ 14.2 µM) in the test on PC-3.
`O=C(CCCCC(=O)Nc1nc2ccccc2s1)NO`: the inhibition entry in test [1], in test [2], in [3] and in test [4] was “inactive” throughout. The half-maximal inhibitory concentration (IC50) is 7.85 µg/mL (≈ 26.8 µM) in the test on SW-620; 4.02 µg/mL (≈ 13.7 µM) in the test on MCF7; 14.4 µg/mL (≈ 49.1 µM) in the test on NCI-H460; 10.2 µg/mL (≈ 34.7 µM) in the test on ASPC1; 12.5 µg/mL (≈ 42.6 µM) in the test with PC-3.
Take `COc1ccc2nc(NC(=O)CCCCCCC(=O)NO)sc2c1`: the inhibition entry in [1], in test [2], in test [3] and in test [4] was “Active” in each case. Also, the IC50 in the test on SW-620 came out at 0.96 µg/mL (≈ 2.73 µM); in the test with MCF7 it was 1.85 µg/mL (≈ 5.26 µM); in the test with NCI-H460, 1.25 µg/mL (≈ 3.56 µM); in the test on ASPC1 it was 0.79 µg/mL (≈ 2.25 µM); in the test with PC-3, 1.56 µg/mL (≈ 4.44 µM).
Consider `Cc1ccc2nc(NC(=O)CCCCCCC(=O)NO)sc2c1`, for which the inhibition result in test [1], in [2], in [3] and in test [4] was “Active” each time. In addition, the half-maximal inhibitory concentration (IC50) with SW-620 was found to be 0.56 µg/mL (≈ 1.67 µM); with MCF7, 1.6 µg/mL (≈ 4.77 µM); with NCI-H460 it was 0.84 µg/mL (≈ 2.5 µM); with ASPC1 it was 0.54 µg/mL (≈ 1.61 µM); in the test with PC-3, 0.53 µg/mL (≈ 1.58 µM).
On to `CCOc1ccc2nc(NC(=O)CCCCCCC(=O)NO)sc2c1`, for which the inhibition result in [1], in test [2], in test [3] and in test [4] was “inactive” in each case. Further, the IC50 in the test with SW-620 was 10.4 µg/mL (≈ 28.5 µM); with MCF7 it was 11.6 µg/mL (≈ 31.8 µM); with NCI-H460 it was 6.58 µg/mL (≈ 18 µM); in the test with ASPC1, 9.88 µg/mL (≈ 27 µM); in the test with PC-3 it was 16.9 µg/mL (≈ 46.2 µM).
Take `O=C(CCCCCCC(=O)Nc1nc2ccc([N+](=O)[O-])cc2s1)NO`: the inhibition result in test [1], in test [2], in test [3] and in test [4] was “Active” throughout. For the same compound, the concentration for half-maximal inhibition (IC50) with SW-620 was determined as 0.29 µg/mL (≈ 0.791 µM); with MCF7, 3.83 µg/mL (≈ 10.5 µM); in the test on NCI-H460, 1.9 µg/mL (≈ 5.19 µM); in the test with ASPC1 it was 1.65 µg/mL (≈ 4.5 µM); in the test on PC-3, 1.28 µg/mL (≈ 3.49 µM).
